Data set [1] is described as follows: Toxicity against brine shrimp. It counts as organism-based. To be noted: artemia, in vivo.
Another data set concerns A549. Put plainly: Cytotoxicity against human A549 cells after 7 days by MTT assay. To be noted: A549, 168 h, read-out: ED50 (the source's name). In kind it is functional. In general terms: Tetrazolium assays rely on reduction of a dye to a coloured formazan, in cell work by metabolically active cells.
For the next data set, the system named is MCF7. Put plainly: Cytotoxicity against human MCF7 cells after 7 days by MTT assay. The following applies: MCF7, 168 h, read-out: ED50 (the source's name). It counts as functional.
For the next data set, the system named is HT-29. Put plainly: Cytotoxicity against human HT-29 cells after 7 days by MTT assay. It counts as functional. The following applies: HT-29, 168 h, read-out: ED50 (the source's name).

These results are taken from ChEMBL document CHEMBL1159260, “Muricatocins A and B, two new bioactive monotetrahydrofuran Annonaceous acetogenins from the leaves of Annona muricata” (J Nat Prod, 1995).

≈ marks a conversion by molar mass, not a printed value. Bounds are passed on as bounds.

By LC50 is commonly meant the concentration lethal to half of the exposed cells or organisms. The low end stands for a more lethal substance, the high end for a less lethal substance.

In the case of `CCCCCCCCCCCC[C@H](O)[C@H]1CC[C@H]([C@H](O)CC[C@H]2C[C@@H](CCCCC[C@@H](O)CC3=C[C@H](C)OC3=O)OC(C)(C)O2)O1`, the LC50 in data set [1] is 0.266 mg/L (≈ 0.407 µM). Moreover, the EC50 with A549 is 0.00718 mg/L (≈ 0.011 µM); in the data set with MCF7 it was 0.878 mg/L (≈ 1.34 µM); in the data set with HT-29, greater than 1 mg/L.

Consider `CCCCCCCCCCCC[C@@H](O)[C@H]1CC[C@H]([C@H](O)CC[C@H]2C[C@@H](CCCCC[C@@H](O)CC3=C[C@H](C)OC3=O)OC(C)(C)O2)O1`, for which, in data set [1], the LC50 turned out to be 0.206 mg/L (≈ 0.315 µM). In addition, the values for the EC50 in the data set with A549, with MCF7 and with HT-29 were 0.00367 mg/L (≈ 0.00562 µM), 0.165 mg/L (≈ 0.253 µM) and 0.508 mg/L (≈ 0.778 µM), respectively.

`COc1cccc2c1C(=O)c1c(O)c3c(c(O)c1C2=O)C[C@@](O)(C(=O)CO)C[C@@H]3O[C@H]1C[C@H](N)[C@H](O)[C@H](C)O1` [DOXORUBICIN]: the EC50 in the data set with A549 turned out to be 0.00356 mg/L (≈ 0.00655 µM); in the data set on MCF7 it was 0.142 mg/L (≈ 0.261 µM).

In the case of `CCCCCCCCCCCC[C@@H](O)[C@H]1CC[C@H]([C@H](O)CC[C@H](O)C[C@H](O)CCCCC[C@@H](O)CC2=C[C@H](C)OC2=O)O1` [MURICATOCIN A], the LC50 in data set [1] was 0.699 mg/L (≈ 1.14 µM). The EC50 in the data set on A549 turned out to be 0.0755 mg/L (≈ 0.123 µM); with MCF7, 0.123 mg/L (≈ 0.201 µM); in the data set on HT-29 it was 1.56 mg/L (≈ 2.55 µM).

For `CCCCCCCCCCCC[C@H](O)[C@H]1CC[C@H]([C@H](O)CC[C@H](O)C[C@H](O)CCCCC[C@@H](O)CC2=C[C@H](C)OC2=O)O1` [MURICATOCIN B], in data set [1], the 50% lethal concentration (LC50) worked out at 0.557 mg/L (≈ 0.909 µM). The results for the EC50 with A549, in the data set on MCF7 and in the data set on HT-29 were 0.334 mg/L (≈ 0.545 µM), 0.103 mg/L (≈ 0.168 µM) and 1.66 mg/L (≈ 2.71 µM), respectively.
